Experimental data taken from ChEMBL document CHEMBL1159177, “Novel A-ring cleaved analogs of oleanolic and ursolic acids which affect growth regulation in NRP.152 prostate cells” (Bioorg Med Chem Lett, 1997).

Test: In vitro inhibitory concentration against cell proliferation of nonmalignant, nontumerigenic prostate cells (NRP.152)
Format: functional, cell-based
Conditions: Rattus norvegicus

Row | Compound | IC50
1 | C=C(C)[C@@H]1CC[C@]2(C)[C@H](CC=C3C4CC(C)(C)CC[C@]4(C(=O)O)CC[C@]32C)[C@@]1(C)CCC(=O)O (some centres not stated) | > 5 µM
2 | C[C@@H]1CC[C@]2(C(=O)O)CC[C@]3(C)C(=CC[C@@H]4[C@@]5(C)CC[C@H](O)C(C)(C)[C@@H]5CC[C@]43C)C2[C@H]1C (some centres not stated) | > 5 µM
3 | C=C(C)[C@@H]1CC[C@]2(C)[C@H](CC=C3C4[C@@H](C)[C@H](C)CC[C@]4(C(=O)O)CC[C@]32C)[C@@]1(C)CCC#N (some centres not stated) | > 5 µM
4 | CC(C)[C@@H]1CC[C@]2(C)[C@H](CC=C3C4CC(C)(C)CC[C@]4(C(=O)O)CC[C@]32C)[C@@]1(C)CCCN (some centres not stated) | 0.7 µM
5 | C=C(C)[C@@H]1CC[C@]2(C)[C@H](CC=C3C4CC(C)(C)CC[C@]4(C(=O)O)CC[C@]32C)[C@@]1(C)CCC=O (some centres not stated) | 1.5 µM
6 | C=C(C)[C@@H]1CC[C@]2(C)[C@H](CC=C3C4CC(C)(C)CC[C@]4(C(=O)O)CC[C@]32C)[C@@]1(C)CCC#N (some centres not stated) | 3.8 µM
7 | CC(C)[C@@H]1CC[C@]2(C)[C@H](CC=C3C4[C@@H](C)[C@H](C)CC[C@]4(C(=O)O)CC[C@]32C)[C@@]1(C)CCCN (some centres not stated) | 0.3 µM
8 | C[C@@H]1CC[C@]2(C(=O)O)CC[C@]3(C)C(=CC[C@@H]4[C@@]5(C)CCC(=O)C(C)(C)[C@@H]5CC[C@]43C)C2[C@H]1C (some centres not stated) | > 5 µM
9 | C=C(C)[C@@H]1CC[C@]2(C)[C@H](CC=C3C4[C@@H](C)[C@H](C)CC[C@]4(C(=O)O)CC[C@]32C)[C@@]1(C)CCC(=O)O (some centres not stated) | > 5 µM
10 | C=C(C)[C@@H]1CC[C@]2(C)[C@H](CC=C3C4[C@@H](C)[C@H](C)CC[C@]4(C(=O)O)CC[C@]32C)[C@@]1(C)CCC=O (some centres not stated) | 2.4 µM
11 | CC1(C)CC[C@]2(C(=O)O)CC[C@]3(C)C(=CC[C@@H]4[C@@]5(C)CC[C@H](O)C(C)(C)[C@@H]5CC[C@]43C)[C@@H]2C1 [OLEANOLIC_ACID] | > 5 µM
12 | CC1(C)CC[C@]2(C(=O)O)CC[C@]3(C)C(=CC[C@@H]4[C@@]5(C)CCC(=O)C(C)(C)[C@@H]5CC[C@]43C)[C@@H]2C1 [OLEANONIC ACID] | > 5 µM
